Data from ChEMBL document CHEMBL4152339, “Design and synthesis of novel 1H-tetrazol-5-amine based potent antimicrobial agents: DNA topoisomerase IV and gyrase affinity evaluation supported by molecular docking studies” (Eur J Med Chem, 2018).
≈ marks a conversion by molar mass, not a printed value. Each block holds one molecule with its values, some of them ahead of it.

Legend:
Escherichia coli [1] = assay: Antibacterial activity against Escherichia coli ML 8 after 18 hrs by CLSI disc diffusion method; type: functional; settings: ML 8, 18 h
[2] = tested on: Bordetella bronchiseptica; assay: Antibacterial activity against Bordetella bronchiseptica ATCC 4617 after 18 hrs by CLSI disc diffusion method; type: functional; settings: ATCC 4617, 18 h
[3] = tested on: Staphylococcus epidermidis; assay: Antibacterial activity against Staphylococcus epidermidis ATCC 35984 after 18 hrs by CLSI […] method; type: functional; settings: ATCC 35984, 18 h
Staphylococcus aureus [4] = assay: Antibacterial activity against Staphylococcus aureus ATCC 25923 after 18 hrs by CLSI disc diffusion method; type: functional; settings: ATCC 25923, 18 h
Bacillus spizizenii = assay: Antibacterial activity against Bacillus subtilis ATCC 6633 after 18 hrs by CLSI disc diffusion method; type: functional; settings: ATCC 6633, 18 h
Pseudomonas aeruginosa [5] = assay: Antibacterial activity against Pseudomonas aeruginosa 6m after 18 hrs by CLSI disc diffusion method; type: functional
Staphylococcus aureus [6] = assay: Antibacterial activity against Staphylococcus aureus 498 after 18 hrs by CLSI disc diffusion method; type: functional; settings: Staphylococcus aureus, 498, 18 h
[7] = Selectivity index, ratio of IC50 for human HaCaT cells to MIC for Bacillus subtilis ATCC 6633; type: toxicity; settings: read-out: Selectivity Index
Micrococcus luteus [8] = assay: Antibacterial activity against Micrococcus luteus ATCC 9341 after 18 hrs by CLSI disc diffusion method; type: functional; settings: ATCC 9341, 18 h
Pseudomonas aeruginosa [9] = assay: Antibacterial activity against Pseudomonas aeruginosa 11m after 18 hrs by CLSI disc diffusion method; type: functional
Staphylococcus aureus [10] = assay: Antibacterial activity against Staphylococcus aureus 585 after 18 hrs by CLSI disc diffusion method; type: functional; settings: Staphylococcus aureus, 585, 18 h
HaCaT = assay: Cytotoxicity activity against human HaCaT cells assessed as reduction in cell viability after 72 hrs by MTT assay; type: cell-based
[11] = Selectivity index, ratio of IC50 for human HaCaT cells to MIC for Proteus vulgaris NCTC 4635; type: toxicity; settings: read-out: Selectivity Index
[12] = tested on: Staphylococcus epidermidis; assay: Antibacterial activity against Staphylococcus epidermidis ATCC 12228 after 18 hrs by CLSI disc diffusion method; type: functional; settings: ATCC 12228, 18 h
[13] = tested on: Staphylococcus epidermidis; assay: Antibacterial activity against Staphylococcus epidermidis 471 after 18 hrs by CLSI disc diffusion method; type: functional; settings: Staphylococcus epidermidis, 471, 18 h
Staphylococcus aureus [14] = assay: Antibacterial activity against Staphylococcus aureus 496 after 18 hrs by CLSI disc diffusion method; type: functional; settings: Staphylococcus aureus, 496, 18 h
Enterococcus hirae = assay: Antibacterial activity against Enterococcus hirae ATCC 10541 after 18 hrs by CLSI disc diffusion method; type: functional; settings: ATCC 10541, 18 h
Staphylococcus aureus [15] = assay: Antibacterial activity against Staphylococcus aureus NCTC 4163 after 18 hrs by CLSI disc diffusion method; type: functional; settings: NCTC 4163, 18 h
[16] = tested on: Staphylococcus epidermidis; assay: Antibacterial activity against Staphylococcus epidermidis 510 after 18 hrs by CLSI disc diffusion method; type: functional; settings: Staphylococcus epidermidis, 510, 18 h
Pseudomonas aeruginosa [17] = assay: Antibacterial activity against Pseudomonas aeruginosa ATCC 15442 after 18 hrs by CLSI disc diffusion method; type: functional; settings: ATCC 15442, 18 h
Escherichia coli [18] = assay: Antibacterial activity against Escherichia coli ML 6 after 18 hrs by CLSI disc diffusion method; type: functional; settings: ML 6, 18 h
Bacillus cereus = assay: Antibacterial activity against Bacillus cereus ATCC 11778 after 18 hrs by CLSI disc diffusion method; type: functional; settings: ATCC 11778, 18 h
Staphylococcus aureus [19] = assay: Antibacterial activity against Staphylococcus aureus 495 after 18 hrs by CLSI disc diffusion method; type: functional; settings: Staphylococcus aureus, 495, 18 h
[20] = tested on: Staphylococcus epidermidis; assay: Antibacterial activity against Staphylococcus epidermidis 431 after 18 hrs by CLSI disc diffusion method; type: functional; settings: Staphylococcus epidermidis, 431, 18 h
Staphylococcus aureus [21] = assay: Antibacterial activity against Staphylococcus aureus 537 after 18 hrs by CLSI disc diffusion method; type: functional; settings: Staphylococcus aureus, 537, 18 h
Pseudomonas aeruginosa [22] = assay: Antibacterial activity against Pseudomonas aeruginosa 31m after 18 hrs by CLSI disc diffusion method; type: functional
Escherichia coli [23] = assay: Antibacterial activity against Escherichia coli ML 15 after 18 hrs by CLSI disc diffusion method; type: functional; settings: ML 15, 18 h
[24] = Inhibition of Staphylococcus aureus DNA topoisomerase 4 using Kinetoplast DNA as substrate after 30 mins by ethidium bromide staining based agarose gel electrophoresis method
Pseudomonas aeruginosa [25] = assay: Antibacterial activity against Pseudomonas aeruginosa 12m after 18 hrs by CLSI disc diffusion method; type: functional
[26] = tested on: Staphylococcus epidermidis; assay: Antibacterial activity against Staphylococcus epidermidis 469 after 18 hrs by CLSI disc diffusion method; type: functional; settings: Staphylococcus epidermidis, 469, 18 h
Staphylococcus aureus [27] = assay: Antibacterial activity against Staphylococcus aureus 497 after 18 hrs by CLSI disc diffusion method; type: functional; settings: Staphylococcus aureus, 497, 18 h
Enterococcus faecalis = assay: Antibacterial activity against Enterococcus faecalis ATCC 29212 after 18 hrs by CLSI disc diffusion method; type: functional; settings: ATCC 29212, 18 h
Escherichia coli [28] = assay: Antibacterial activity against Escherichia coli ML 12 after 18 hrs by CLSI disc diffusion method; type: functional; settings: ML 12, 18 h
Staphylococcus aureus [29] = assay: Antibacterial activity against Staphylococcus aureus ATCC 6538 after 18 hrs by CLSI disc diffusion method; type: functional; settings: ATCC 6538, 18 h
Micrococcus luteus [30] = assay: Antibacterial activity against Micrococcus luteus ATCC 10240 after 18 hrs by CLSI disc diffusion method; type: functional; settings: ATCC 10240, 18 h
[31] = Selectivity index, ratio of IC50 for human HaCaT cells to MIC for Staphylococcus aureus NCTC 4163; type: toxicity; settings: read-out: Selectivity Index
[32] = tested on: Staphylococcus epidermidis; assay: Antibacterial activity against Staphylococcus epidermidis 432 after 18 hrs by CLSI disc diffusion method; type: functional; settings: Staphylococcus epidermidis, 432, 18 h
Staphylococcus aureus [33] = assay: Antibacterial activity against Staphylococcus aureus 586 after 18 hrs by CLSI disc diffusion method; type: functional; settings: Staphylococcus aureus, 586, 18 h
Pseudomonas aeruginosa [34] = assay: Antibacterial activity against Pseudomonas aeruginosa 10m after 18 hrs by CLSI disc diffusion method; type: functional
[35] = tested on: Staphylococcus epidermidis; assay: Antibacterial activity against Staphylococcus epidermidis 511 after 18 hrs by CLSI disc diffusion method; type: functional; settings: Staphylococcus epidermidis, 511, 18 h
Escherichia coli [36] = assay: Antibacterial activity against Escherichia coli ML 17 after 18 hrs by CLSI disc diffusion method; type: functional; settings: ML 17, 18 h
[37] = tested on: Staphylococcus epidermidis; assay: Antibacterial activity against Staphylococcus epidermidis 423 after 18 hrs by CLSI disc diffusion method; type: functional; settings: Staphylococcus epidermidis, 423, 18 h
A549 = assay: Cytotoxicity activity against human A549 cells assessed as reduction in cell viability after 72 hrs by MTT assay; type: cell-based; settings: A549, 72 h
[38] = tested on: Staphylococcus epidermidis; assay: Antibacterial activity against Staphylococcus epidermidis 433 after 18 hrs by CLSI disc diffusion method; type: functional; settings: Staphylococcus epidermidis, 433, 18 h
Pseudomonas aeruginosa [39] = assay: Antibacterial activity against Pseudomonas aeruginosa 18m after 18 hrs by CLSI disc diffusion method; type: functional
Escherichia coli [40] = assay: Antibacterial activity against Escherichia coli ML 16 after 18 hrs by CLSI disc diffusion method; type: functional; settings: ML 16, 18 h
[41] = Selectivity index, ratio of IC50 for human HaCaT cells to MIC for Micrococcus luteus ATCC 10240; type: toxicity; settings: read-out: Selectivity Index
[42] = Selectivity index, ratio of IC50 for human HaCaT cells to MIC for Escherichia coli ATCC 10538; type: toxicity; settings: read-out: Selectivity Index
Escherichia coli [43] = assay: Antibacterial activity against Escherichia coli ML 5 after 18 hrs by CLSI disc diffusion method; type: functional; settings: ML 5, 18 h
Staphylococcus aureus [44] = assay: Antibacterial activity against Staphylococcus aureus 572 after 18 hrs by CLSI disc diffusion method; type: functional; settings: Staphylococcus aureus, 572, 18 h
Escherichia coli [45] = assay: Antibacterial activity against Escherichia coli ML 9 after 18 hrs by CLSI disc diffusion method; type: functional; settings: ML 9, 18 h
Pseudomonas aeruginosa [46] = assay: Antibacterial activity against Pseudomonas aeruginosa 16m after 18 hrs by CLSI disc diffusion method; type: functional
Escherichia coli [47] = assay: Antibacterial activity against Escherichia coli ATCC 10538 after 18 hrs by CLSI disc diffusion method; type: functional; settings: ATCC 10538, 18 h
[48] = Selectivity index, ratio of IC50 for human HaCaT cells to MIC for Bordetella bronchiseptica ATCC 4617; type: toxicity; settings: read-out: Selectivity Index
Pseudomonas aeruginosa [49] = assay: Antibacterial activity against Pseudomonas aeruginosa ATCC 27853 after 18 hrs by CLSI disc diffusion method; type: functional; settings: ATCC 27853, 18 h
[50] = Selectivity index, ratio of IC50 for human HaCaT cells to MIC for Enterococcus hirae ATCC 10541; type: toxicity; settings: read-out: Selectivity Index
DNA gyrase = DNA gyrase (Staphylococcus aureus, UniProt P0A0K8+P20831); assay: Inhibition of Staphylococcus aureus DNA gyrase supercoiling activity using pBR322 DNA as substrate after 30 mins by ethidium bromide staining based agarose gel electrophoresis method; type: protein-complex assay
Pseudomonas aeruginosa [51] = assay: Antibacterial activity against Pseudomonas aeruginosa 7m after 18 hrs by CLSI disc diffusion method; type: functional
Proteus vulgaris = assay: Antibacterial activity against Proteus vulgaris NCTC 4635 after 18 hrs by CLSI disc diffusion method; type: functional; settings: NCTC 4635, 18 h

MIC (Escherichia coli [1]): 7 µM (≈ 2.06 µg/mL)
MIC [2]: 7 µM (≈ 2.06 µg/mL)
MIC [3]: 3 µM (≈ 0.881 µg/mL)
MIC (Staphylococcus aureus [4]): 7 µM (≈ 2.06 µg/mL)
MIC (Bacillus spizizenii): 3 µM (≈ 0.881 µg/mL)
MIC (Pseudomonas aeruginosa [5]): 7 µM (≈ 2.06 µg/mL)
MIC (Staphylococcus aureus [6]): 7 µM (≈ 2.06 µg/mL)
MIC (Micrococcus luteus [8]): 1 µM (≈ 0.294 µg/mL)
MIC (Pseudomonas aeruginosa [9]): 27 µM (≈ 7.93 µg/mL)
MIC (Staphylococcus aureus [10]): 14 µM (≈ 4.11 µg/mL)
MIC [12]: 7 µM (≈ 2.06 µg/mL)
MIC [13]: 7 µM (≈ 2.06 µg/mL)
MIC (Staphylococcus aureus [14]): 7 µM (≈ 2.06 µg/mL)
MIC (Enterococcus hirae): 14 µM (≈ 4.11 µg/mL)
MIC (Staphylococcus aureus [15]): 7 µM (≈ 2.06 µg/mL)
MIC [16]: 14 µM (≈ 4.11 µg/mL)
MIC (Pseudomonas aeruginosa [17]): 218 µM (≈ 64 µg/mL)
MIC (Escherichia coli [18]): 54 µM (≈ 15.9 µg/mL)
MIC (Bacillus cereus): 3 µM (≈ 0.881 µg/mL)
MIC (Staphylococcus aureus [19]): 7 µM (≈ 2.06 µg/mL)
MIC [20]: 7 µM (≈ 2.06 µg/mL)
MIC (Staphylococcus aureus [21]): 7 µM (≈ 2.06 µg/mL)
MIC (Pseudomonas aeruginosa [22]): 7 µM (≈ 2.06 µg/mL)
MIC (Escherichia coli [23]): 54 µM (≈ 15.9 µg/mL)
IC50 [24]: 2.6 µg/mL (≈ 8.85 µM)
MIC (Pseudomonas aeruginosa [25]): 7 µM (≈ 2.06 µg/mL)
MIC [26]: 7 µM (≈ 2.06 µg/mL)
MIC (Staphylococcus aureus [27]): 14 µM (≈ 4.11 µg/mL)
MIC (Enterococcus faecalis): 7 µM (≈ 2.06 µg/mL)
MIC (Escherichia coli [28]): 54 µM (≈ 15.9 µg/mL)
MIC (Staphylococcus aureus [29]): 7 µM (≈ 2.06 µg/mL)
MIC (Micrococcus luteus [30]): 1 µM (≈ 0.294 µg/mL)
MIC [32]: 7 µM (≈ 2.06 µg/mL)
MIC (Staphylococcus aureus [33]): 14 µM (≈ 4.11 µg/mL)
MIC (Pseudomonas aeruginosa [34]): 27 µM (≈ 7.93 µg/mL)
MIC [35]: 14 µM (≈ 4.11 µg/mL)
MIC (Escherichia coli [36]): 7 µM (≈ 2.06 µg/mL)
MIC [37]: 14 µM (≈ 4.11 µg/mL)
MIC [38]: 14 µM (≈ 4.11 µg/mL)
MIC (Pseudomonas aeruginosa [39]): 14 µM (≈ 4.11 µg/mL)
MIC (Escherichia coli [40]): 7 µM (≈ 2.06 µg/mL)
MIC (Escherichia coli [43]): 7 µM (≈ 2.06 µg/mL)
MIC (Staphylococcus aureus [44]): 14 µM (≈ 4.11 µg/mL)
MIC (Escherichia coli [45]): 14 µM (≈ 4.11 µg/mL)
MIC (Pseudomonas aeruginosa [46]): 14 µM (≈ 4.11 µg/mL)
MIC (Escherichia coli [47]): 7 µM (≈ 2.06 µg/mL)
MIC (Pseudomonas aeruginosa [49]): 7 µM (≈ 2.06 µg/mL)
IC50 (DNA gyrase): 3.06 µM
MIC (Pseudomonas aeruginosa [51]): 7 µM (≈ 2.06 µg/mL)
MIC (Proteus vulgaris): 1 µM (≈ 0.294 µg/mL)
SMILES: Fc1ccc(-n2nnnc2NCc2ccco2)cc1Cl
selectivity ratio [7]: 28
IC50 (HaCaT): 84 µM
selectivity ratio [11]: 84
selectivity ratio [31]: 12
IC50 (A549): 80 µM
selectivity ratio [41]: 84
selectivity ratio [42]: 12
selectivity ratio [48]: 12
selectivity ratio [50]: 6

IC50 [24]: 1.7 µg/mL (≈ 5.13 µM)
SMILES: O=C(O)c1cn(C2CC2)c2cc(N3CCNCC3)c(F)cc2c1=O [CIPROFLOXACIN]
